Test results as given in US6835382B2, “Ii peptide therapeutics to enhance antigen presentation” (University of Massachusetts, priority 1996, dated 2004).
Non-standard residues stand in square brackets, D forms with d.

Experiments:
[1] = biological target: T1, murine E^d MHC class II allele (Mus musculus, UniProt P01904+P01915); assay: AE101 series peptide prepulse assay, E^d allele; format: cell-based; details: Table 35; AE101 series peptide prepulse 64 μM; antigenic peptide 0.3 μM; supernatant dilution 1:4
T1 sequence (P01904 26-255): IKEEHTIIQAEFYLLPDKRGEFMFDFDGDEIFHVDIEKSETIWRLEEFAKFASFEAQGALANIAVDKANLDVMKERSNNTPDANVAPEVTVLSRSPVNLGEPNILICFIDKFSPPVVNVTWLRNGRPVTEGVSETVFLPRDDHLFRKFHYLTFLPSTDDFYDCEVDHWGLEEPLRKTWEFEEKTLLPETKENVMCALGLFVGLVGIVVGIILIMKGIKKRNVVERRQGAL
T1 sequence (P01915 27-264 limits assumed): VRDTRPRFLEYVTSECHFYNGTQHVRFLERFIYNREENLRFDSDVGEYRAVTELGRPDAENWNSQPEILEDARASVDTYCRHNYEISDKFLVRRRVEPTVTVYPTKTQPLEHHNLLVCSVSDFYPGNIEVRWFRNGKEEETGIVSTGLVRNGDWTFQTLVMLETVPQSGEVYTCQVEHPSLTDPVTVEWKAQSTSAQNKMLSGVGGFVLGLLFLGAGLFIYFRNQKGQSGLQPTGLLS
Procedure: (§1) Table 35: Activities of multiple substitution analogs of AE235, targeting the E^k and E^d allele, in an AE101 series peptide prepulse assay. In this assay the concentration of AE101 series peptides used during the prepulse was 64 μM. The concentrations of antigenic peptides were 0.3 μM for Ed and 0.4 μM for E^k. The supernatant dilutions taken into the HT-2 cell assay was 1:4 for E and 1:2 for E^k. The AE381 peptide is a head-to-tail cyclization: the amino terminal amino group is coupled through an amide linkage to the carboxyl terminal group. The AE 382 peptide is a side-to-tail cyclization: the epsilon amino group of Lys^4 is coupled through an amide linkage to the carboxyl terminal group.
(§2) AE101 series peptide prepulse assays were carried out in the E^d and E^k systems as described for simultaneous competition assays with the following modifications. Fixed APC were first incubated for 6 h at 1×10^6DMEM-5% FCS with 64 μM of each AE101 series peptide or with PBS. The APC were then washed four times with ten volumes of DMEM-5% FCS, and were cocultured with T hybridoma cells and the indicated submaximal doses of antigenic peptides used in the simultaneous competition assays. The baseline T cell response was measured by culturing T hybridoma cells with antigenic peptide and PBS-pretreated APC.

[2] = system: murine E^k MHC class II allele; assay: AE101 series peptide prepulse assay, E^k allele; format: cell-based; details: Table 35; AE101 series peptide prepulse 64 μM; antigenic peptide 0.4 μM; supernatant dilution 1:2
Procedure: as §1, §2

[3] = system: HLA-DR1 molecules; assay: release of biotin-labeled hMBP(90-102) from HLA-DR1 in the presence of unlabeled hMBP (assay II); format: binding, human; details: for Relative Release, With unlabeled hMBP(90-102), 1 μM / Relative Release, With unlabeled hMBP(90-102), 64 μM: Table 37, unlabeled hMBP(90-102) 250 μM; for Relative Release, With unlabeled hMBP(90-102), 1 μM: AE101 series compound 1 μM; for Relative Release, With unlabeled hMBP(90-102), 64 μM: AE101 series compound 64 μM
[4] = biological target: T2, HLA-DR1 molecules (Homo sapiens, UniProt P01903+P01911, A100R/D57E/F55L/F60I/F76Y/I96L/L162R/M171V/P40L/Q125E/R42F/V115G/Y59C); assay: binding of biotin-labeled hMBP(90-102) to "empty" HLA-DR1 (assay IV); details: Table 39; AE101 series compound 64 μM; biotin-labeled hMBP(90-102) 50 μM, 37° C., 1 h; no enhancement = 1
T2 construct: The HLA-DR alpha gene was truncated after Asn^192 to remove transmembranal and cytoplasmic regions from the protein product; A gene coding for the HLA-DR1 beta chain was truncated after position Lys^198, again to delete the transmembranal region; made in house; host or cells: insect cell line printed as HS / H5 (Invitrogen), co-infected with two baculoviruses; concentrated culture supernatant captured on 12CA5 antibody

Substance | T cell response relative to baseline with PBS-pretreated APC (NONE = 1.0), E^d [1] | T cell response relative to baseline with PBS-pretreated APC (NONE = 1.0), E^k [2] | Relative Release, With unlabeled hMBP(90-102), 1 μM [3] | Relative Release, With unlabeled hMBP(90-102), 64 μM [3] | Relative Enhancement [4] | release of antigenic peptide from HLA-DR1 in presence of second antigenic peptide, in words ([3]; excess second antigenic peptide)
Ac-LR L KLPK-NH2 (Ac-LRLKLPK-NH2; not fully specified; printed as Ac-LR L KLPK-NH2) [AE206] | 5.0 | 2.7 | 0.03 | −0.29 | 2.57 | 
Ac-LRMK D PK-NH2 (Ac-LRMKDPK-NH2) [AE230] | 0.8 | 1.6 |  |  |  | 
Ac-LRMK Y PK-NH2 (Ac-LRMKYPK-NH2; not fully specified; printed as Ac-LRMK Y PK-NH2) [AE235] | 15.6 | 2.1 | 0.48 | 0.6 | 0.61 | 
Ac-LRMKLPK-NH2 [AE114] | 6.0 | 2.0 |  |  |  | can catalyze the release of antigenic peptide from the antigenic peptide binding site only in the presence of excess quantities of a second antigenic peptide
Ac-YRMK-NH2 [AE117] | 4.4 | 2.3 |  |  |  | 
Ac-YRMKL hydrP KSAK-NH2 (Ac-YRMKL[hydrP]KSAK-NH2) [AE143] |  |  | 0.35 | 0.21 |  | 
YRMKLPKSAKPVSQMR [AE101] |  |  |  |  | 2.66 | 
